Measured values as given in patent US12336986B2, “Treatment and prevention of ocular neurodegenerative disorder” (The Jackson Laboratory, priority 2015, dated 2025).
“Also recorded” adds a separate entry of the source.

Experiments:
C57BL/6J (B6) mice = assay: Soluble murine TNFα intravitreal injection model of RGC death; assay type: in vivo, mouse; details: NAM 550 mg/kg/day, 12-week post-TNFα administration
Procedure: To induce delayed retinal ganglion cell degeneration, soluble murine TNFα (1 ng/μL) was intravitrally injected as previously described (Nakazawa et al., J Neurosci 26, 12633-12641, 2006). […] Mice we sacrificed at 12-week and RGC counts performed.

γH2AX = assay: DNA damage (γH2AX staining) in D2 retinas; assay type: in vivo, mouse; details: D2 mice, early glaucoma, NAM 550 mg/kg/day
Procedure: For immunofluorescence staining, mice were euthanized by cervical dislocation, their eyes enucleated and placed in 4% PFA ON. Retinas were dissected and flat-mounted onto slides, permeabilized with 0.1% Triton-X for 15 mins, blocked with 2% BSA in PBS and stained ON at RT in primary antibody (see below for list of antibodies).
After primary antibody incubation, retinas were washed 5 times in PBS, stained for 4 hrs at RT with secondary antibody. Slides were then washed a further 5 times with PBS, stained with DAPI for 15 mins, mounted with fluoromount, coverslipped and sealed with nail-polish.
For retinal sections, eyes were cryoprotected in 30% sucrose ON, frozen in OCT and cryosectioned at 18 μm. Slides were warmed to room temperature and the procedure above was followed. Retinas were imaged on a Zeiss AxioObserver for low resolution counts. Retinal sections were imaged on a Leica SP8 far higher resolution images.

[1] = tested on: mouse model for EAE, ALS, RRMS; details: US 2006-0211744 A1, RRMS mouse models; cited from earlier work
[2] = tested on: dendritic mitochondria of D2 RGCs; assay: Electron microscopy of RGC dendritic mitochondria (cristae); assay type: in vivo, mouse; details: D2 mice, NAM 550 mg/kg/day
Procedure: Mice were euthanized, eyes enucleated, and then fixed ON in Smith-Ruda (0.8% PFA and 1.2% gluteraldehyde in 0.1 M phosphate buffer). The cornea and lens were dissected off and the remaining posterior eye-cup (containing the retina and ONH) were post-fixed in 2% aqueous osmium tetroxide and dehydrated in ethyl alcohol. Samples were then infiltrated and flat-mounted in Embed 812/Araldite resin (Electron Microscopy Sciences) to allow en face sections. Blocks were polymerized at 60° C. for 48 hrs and 90 nm microtome sections were cut (Leica UC6, Leica) onto 300 mesh copper grids. Grids were stained with 1% aqueous uranyl acetate/Reynold's lead citrate and were viewed on a JEOL JEM 1230 TEM. Images were collected on an AMT 2K camera.

DBA/2J (D2) mice = assay: Clinical phenotyping: intraocular pressure (IOP) and iris disease in D2 mice; assay type: in vivo, mouse
Procedure: IOP elevation in D2 mice is subsequent to a pigment dispersing iris disease. In all experiments, the progression of the iris disease and intraocular pressure in mutant or drug-treated mice was compared to control D2 mice as previously described (John et al., Invest Ophthalmol Vis Sci 39, 951-962, 1998). In each experiment, iris disease and intraocular pressure were assessed.
Iris disease was assessed at two-month intervals starting at 6 months of age until experiment completion.
Intraocular pressure was measured at 45-day intervals beginning at 8.5-9 month until experiment completion.

D2 retinas [3] = assay: Metabolic phenotyping of retina: total NAD, NAD(t) (NAD+/NADH); assay type: in vivo, mouse
Procedure: We performed additional metabolic profiling of neural retinas from 4-, 9-, and 12-months old D2 and D2-Gpnmb^+ eyes. Metabolic profiling was performed using targeted assays following the manufacturers recommendations. The following metabolites were profiled: NAD+/NADH (i.e. total NAD, NAD(t)), GSH/GSSG (i.e. total glutathione, glutathione(t)), and pyruvate.
For GSH/GSSO and NAD^+/NADH quantification retinas were dissociated (as above) and compounds measured following the manufacturer's instructions (GSH/GSSG, Cayman Chemical; NAD^+/NADH, Biovision). Results were calculated according to the standard curve generated by using standards from the kits. Final metabolite concentrations for each samples were normalized to total protein concentration measured by Bradford assay.

RGCs = details: U.S. Pat. No. 7,776,326; injected intravitreally; cited from earlier work
D2 retinas [4] = assay: Lipid droplet formation in inner retina (Oil Red O staining); assay type: in vivo, mouse; details: D2 mice, 12-month, NAM 550 mg/kg/day
Procedure: For Oil Red O staining, slides were warmed to room temperature, washed quickly in 60% isopropanol, incubated at RT in Oil Red O and Haematoxylin for 15 mins, washed in 60% isopropanol again, mounted and coverslipped. Oil Red O stained retinal sections were imaged using a Nikon Eclipse […].

For NC(=O)c1cccnc1 [NAM, nicotinamide], the “loss of PERG amplitude in TNFα injected eyes” value (C57BL/6J (B6) mice) was “protected against; also recorded: prevents”, the “soma loss / cell loss in TNFα injected eyes” value (C57BL/6J (B6) mice) was “protected against; also recorded: prevents” and the “DNA damage (γH2AX staining)” value (γH2AX) was “limited levels of DNA damage; also recorded: prevents DNA damage”. For the same molecule, the neural degeneration [1] was “reduces neural degeneration”, the “mitochondrial dysfunction / abnormal cristae in dendritic mitochondria (EM)” value [2] was “sufficient to inhibit the formation of dysfunctional mitochondria; also recorded: prevents early mitochondrial dysfunction” and the IOP (DBA/2J (D2) mice; NAM 550 mg/kg/d) was “did not alter IOP; also recorded: IOP was not altered”. The “degree of IOP elevation” value (DBA/2J (D2) mice; NAM 2000 mg/kg/d) was “lessens the degree of IOP elevation”, the “NAD(t) levels in retina” value (D2 retinas [3]; D2 Wld^S mice treated with NAM 550 mg/kg/day) was “synergistic; also recorded: additional benefit” and the “NAD(t) levels in retina” value (D2 retinas [3]; D2 mice, NAM 550 mg/kg/day in drinking water, through to 12-month) was “prevented the decline of NAD levels; also recorded: restored; also recorded: increased”. For the same molecule, the “axon degeneration in RGCs after intravitreal injection” value (RGCs) was “not protective against axon degeneration in RGCs; also recorded: did not show any difference from the control animals” and the “lipid droplet formation in the inner retina” value (D2 retinas [4]) was “prevented; also recorded: prevents lipid droplet formation”.
